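Compound exposure: 48 hours, 5 concentrations, 96-well plates. Abbreviation: GI50, concentration required for 50% inhibition of growth.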 Calls of active or inactive are those of the source. Cut-off read from the data, not from the text of the source: active = GI50 up to about 1.1 µM and inactive = higher. Peptide text beside a SMILES is read from it. * marks the point of attachment. Cbz = O=C(OCc1ccccc1)*; CH2Cl = ClC*

Among the test systems are MDA-N; NCI-H522; DU-145; CAKI-1; SNB-19; LOX IMVI; NCI-H460; OVCAR-4; HT-29; OVCAR-5; HCT-116; UACC-62; M14; SK-MEL-5; NCI-H226; IGROV-1; SF-295; SF-539; A498; KM12.
Common to all, as to test: NCI anticancer screen, dose series, 48 h

`Cc1ccc(C2NC(=O)c3ccccc3N2)c(C)c1` (stereo not given): the GI50 in the assay on MDA-N was 0.174 µM (active); with NCI-H522, 1.88 µM (inactive); in the assay on DU-145, 5.71 µM (inactive); with CAKI-1, 2.56 µM (inactive); in the assay with SNB-19 it was 3.96 µM (inactive); in the assay with LOX IMVI it was 4.76 µM (inactive). Moreover, the GI50 was 3.07 µM (inactive) in the assay on NCI-H460; 2.68 µM (inactive) with OVCAR-4; 2.19 µM (inactive) in the assay on HT-29; 8.43 µM (inactive) in the assay with OVCAR-5; 2.39 µM (inactive) with HCT-116; 1.26 µM (inactive) with UACC-62. For the same molecule, the GI50 is 2.16 µM (inactive) in the assay on M14; 0.951 µM (active) in the assay with SK-MEL-5; 6.1 µM (inactive) in the assay with NCI-H226; 4.62 µM (inactive) in the assay with IGROV-1; 2.15 µM (inactive) in the assay on SF-295; 1.61 µM (inactive) in the assay on SF-539. The values for the GI50 in the assay on A498 and in the assay with KM12 were 5.04 µM (inactive) and 3.21 µM (inactive), respectively.
With `CNn1c(-c2ccccc2)n[nH]c1=O`, the GI50 in the assay on MDA-N, in the assay with NCI-H522, in the assay on DU-145, in the assay on CAKI-1, in the assay with SNB-19 and in the assay with LOX IMVI was > 100 µM (inactive) each time. Further, the GI50 in the assay with NCI-H460, in the assay with OVCAR-4, in the assay with HT-29, in the assay on OVCAR-5, in the assay with HCT-116 and in the assay with UACC-62 was > 100 µM (inactive) in each case. The GI50 with M14, in the assay with SK-MEL-5, in the assay on NCI-H226, in the assay with IGROV-1, in the assay on SF-295 and with SF-539 was > 100 µM (inactive) each time. Besides, the GI50 in the assay with A498 and in the assay on KM12 was > 100 µM (inactive) each time.
`O=C(N/N=C\c1ccc([N+](=O)[O-])cc1)Nc1cccc2ccccc12`: the GI50 in the assay with MDA-N was > 100 µM (inactive); in the assay on NCI-H522, 20.4 µM (inactive); with DU-145, 24.9 µM (inactive); in the assay with CAKI-1 it was 15.3 µM (inactive); in the assay with SNB-19, 5.07 µM (inactive); in the assay on LOX IMVI it was 22.5 µM (inactive). Moreover, the GI50 is > 37.3 µM (inactive) with NCI-H460; > 25.9 µM (inactive) in the assay with OVCAR-4; > 100 µM (inactive) with HT-29; > 100 µM (inactive) in the assay on OVCAR-5; 28.5 µM (inactive) in the assay on HCT-116; 13.2 µM (inactive) in the assay with UACC-62. Further, the GI50 with M14 was 58.9 µM (inactive); in the assay on SK-MEL-5 it was 31.3 µM (inactive); in the assay on NCI-H226, 17.7 µM (inactive); with IGROV-1 it was > 63.2 µM (inactive); in the assay on SF-295, 7.28 µM (inactive); with SF-539, 10.7 µM (inactive). Also, the GI50 in the assay on A498 was 14 µM (inactive); with KM12 it was > 29.7 µM (inactive).
In the case of `CC(C)CC(NC(=O)OCc1ccccc1)C(=O)NC(Cc1ccccc1)C(=O)CCl` (stereo not drawn) (Cbz-Leu-Phe-CH2Cl; configuration not given here), the GI50 is 1.56 µM (inactive) in the assay on MDA-N; 1.38 µM (inactive) with NCI-H522; > 100 µM (inactive) with DU-145; 5.14 µM (inactive) in the assay with CAKI-1; 23.6 µM (inactive) in the assay on SNB-19; 0.719 µM (active) in the assay on LOX IMVI. The GI50 in the assay on NCI-H460 is 6.5 µM (inactive); in the assay on OVCAR-4, 2.08 µM (inactive); with HT-29, 2.68 µM (inactive); with OVCAR-5 it was 3.71 µM (inactive); in the assay with HCT-116, 1.68 µM (inactive); in the assay on UACC-62, 2.71 µM (inactive). The GI50 in the assay with M14 was 1.79 µM (inactive); in the assay on SK-MEL-5, 1.82 µM (inactive); with NCI-H226, 1.91 µM (inactive); in the assay on IGROV-1, 2 µM (inactive); in the assay with SF-295 it was 17.5 µM (inactive); with SF-539 it was 3.32 µM (inactive). Also, the values for the GI50 in the assay with A498 and in the assay with KM12 were 23.6 µM (inactive) and 9.77 µM (inactive), respectively.

Source of the values: ChEMBL document CHEMBL1201862, “PubChem BioAssay data set” (2004).
